US20010051628A1, “METHODS TO MODULATE THE RESISTANCE OF CELLS TO APOPTOSIS MEDIATED BY MUTANT EPIDERMAL GROWTH FACTOR RECEPTORS” (priority 1998, published 2001)

Key:
U87MG.ΔEGFR cells [1] = test: In situ TUNEL labeling of apoptotic DNA fragmentation; format: cell-based, human
Protocol: Cells were seeded on cover slips, treated with 5 μg/ml of CDDP for 2 days, and then TUNEL assays were performed. The percent of TUNEL-positive cells induced by CDDP treatment was assessed by counting more than 400 cells per coverslip. □, U87MG; ▪, U87MG.ΔEGFR;_, U87MG.DK;_, U87MG.wtEGFR.
For each sample, 20 μg of lysate was used. […] For control, the vehicle (DMSO) was used. Apoptosis rate determined by TUNEL assays of triplicate cover slips.
Apoptotic cells were detected by use of terminal deoxynucleotidyl transferase mediated nick end labeling (TUNEL) of apoptotic DNA strand breaks as described (16). Apoptotic index was calculated as a ratio of apoptotic cell number to total tumor cell number within the areas by counting more than 400 cells in each coverslip.

Bcl-XL = test: Western blot of Bcl-XL expression; format: cell-based, human
Protocol: Total cell lysates were prepared at the various time points indicated. For each sample, 20 μg of lysate protein was used. Results were reproduced in three independent experiments. […] For each sample, 20 μg of lysate was used. […] For control, the vehicle (DMSO) was used. Apoptosis rate determined by TUNEL assays of triplicate cover slips. […] Cell lysates were prepared in RIPA buffer (16), equal protein per sample was separated on SDS-polyacrylamide gels, and transferred to nitrocellulose membranes (BioRad, Hercules, Calif.). Proteins on the membranes were probed with antibodies to Bcl-XL (Transduction, Lexington, Ky.), poly(ADP-ribose) polymerase (PARP) (C2-10; […]

caspase-3-like proteases = test: Caspase activity assay in lysates of treated cells (Ac-DEVD-pNA substrate); format: cell-based, human; conditions: for CDDP-induced caspase activation on co-treatment with tyrphostin: data not shown; for caspase-3-like protease activity relative to basal activity: 48 hours after CDDP 5 μg/ml
Protocol: (§1) (A) Total cell lysates were prepared 2 days after treatment with 5 μg/ml CDDP. Samples were assayed for protease activity using the peptide substrate, Ac-DEVD-pNA. […] Cells were also treated with the plasma membrane-soluble caspase inhibitor Z-Asp-CH2DCB (200 μM) prior to and during CDDP treatment. □, U87MG; ▪, U87MG.ΔEGFR;_, U87MG.DK;_, U87MG.wtEGFR. […] (B) Proteolytic cleavage of PARP after CDDP treatment. For each sample, 20 μg total clarified protein lysate was loaded on to SDS-PAGE gels, electrophoresed, transferred to membranes and probed with anti-PARP monoclonal antibodies. FL, full-length; CF, cleaved fragment.
Cells were lysed in lysis buffer (ApoAlert, Clontech, Palo Alto, Calif.) for 15 min on ice, followed by centrifugation. Protease assays included 89 μl of reaction buffer (100 mM HEPES, pH 7.5, 20% v/v glycerol, 6 mM dithiothreitol, and 0.5 mM EDTA), I μl of 10 mM acetyl-Asp-Glu-Val-Asp-p-nitroanilide (Ac-DEVD-pNA) in DMSO (California Peptide Research, Inc., Napa, Calif.), and 10 μl of equal protein cell lysate. Samples were incubated at 37° C., and enzyme-catalyzed release of p-nitroanilide (pNA) was monitored at […] for 1 h in a microtiter plate reader (Molecular Devices Inc., Sunnyvale, Calif.). Aliquots of cell lysates diluted into the reaction buffer were first incubated with 10 μM caspase-3-like protease inhibitor, Ac-Asp-Glu-Val-Asp-aldehyde (Ac-DEVD-CHO) (Bachem, Torrance, Calif.), at 37° C. for 30 min. Values for picomoles of pNA released were calculated from those observed in OD405 values using a standard curve of pNA. One unit of protease activity was defined as the amount of enzyme required to release 1 pmol pNA/min at 37° C. For in vivo caspase inhibition studies, cells were cultured in the presence of peptide caspase inhibitor Z-Asp-CH2-DCB (Bachem).

U87MG.ΔEGFR cells [2] = test: Cell survival (colony forming efficiency) assay; format: cell-based, human; conditions: drug 1 hr, then 10 to 12 days in fresh medium; colony count
Protocol: Western blot analysis of expression (lower) and auto-phosphorylation (upper) of wt EGFR (♦) and ΔEGFR (●) in U87MG, U87MG.ΔEGFR, U87MG.DK and U87MG.wtEGFR cells grown in media containing 10% serum. Low and similar levels of endogenous wt EGFR expression was also detected in U87MG, U87MG.ΔEGFR and U87MG.DK at longer exposures (data not shown). […] Cells were plated in triplicate 60-mm dishes and treated with media containing various concentrations of CDDP for 1 hr, followed by incubation with fresh media for 10 to 12 days. Numbers of colonies were counted after Giemsa staining. Results were reproduced in four independent experiments; bars, SID.
To determine the level of resistance of the cells to chemotherapeutic agents, colony forming efficiency assays were performed as described (20). Briefly, 400 or 700 cells were seeded in triplicate into dishes having a 60-mm diameter. On the next day cells were treated with various concentrations of CDDP for 1 hr or Taxol or vincristine for 2 hr, and then further incubated for 10 to 12 days in the fresh medium. The cells were fixed in methanol, stained with Giemsa solution (Sigma) and the number of colonies containing greater than 50 cells were counted. The survival fraction was calculated as the ratio of the colony-forming efficiency of drug-treated and untreated cells. […]

PARP = test: Western blot of proteolytic cleavage of PARP; format: cell-based, human
Protocol: as §1
Cell lysates were prepared in RIPA buffer (16), equal protein per sample was separated on SDS-polyacrylamide gels, and transferred to nitrocellulose membranes (BioRad, Hercules, Calif.). Proteins on the membranes were probed with antibodies to Bcl-XL (Transduction, Lexington, Ky.), poly(ADP-ribose) polymerase (PARP) (C2-10; Enzyme System Products, Dublin, Calif.), EGFR (C13) (15), or phosphotyrosine (4G10, Upstate Biotechnology, Lake Placid, N.Y.), and detected by chemiluminescence (Amersham).

[3] = tested on: human glioma cell lines A172, U563 or U251; conditions: cited from earlier work
protein kinase C (PKC) = conditions: cited from earlier work
glioma = conditions: pre-treatment with LTC4; cited from earlier work
glioma cell = conditions: cited from earlier work; for serum-driven cell growth: dose-dependent
[4] = tested on: malignant glioma cell lines; conditions: cited from earlier work
U-87 glioma xenografts = conditions: continuous intraperitoneal infusion; cited from earlier work
EGFR = conditions: monolayers at the IC20 doses; cited from earlier work
[5] = tested on: human glioblastoma cell lines; conditions: read-out: IC20 for monolayer growth inhibition; cited from earlier work
[6] = tested on: human glioblastoma spheroids; conditions: cited from earlier work
[7] = tested on: nitric oxide synthase (NOS); conditions: C6 glial cells; cited from earlier work
caspase-3-like protease = test: Inhibition of caspase activity by pre-incubating cell lysates with inhibitor; format: biochemical, human; conditions: 10 μM, lysates pre-incubated at 37° C. for 30 min
Protocol: as §1
Cells were lysed in lysis buffer (ApoAlert, Clontech, Palo Alto, Calif.) for 15 min on ice, followed by centrifugation. Protease assays included 89 μl of reaction buffer (100 mM HEPES, pH 7.5, 20% v/v glycerol, 6 mM dithiothreitol, and 0.5 mM EDTA), I μl of 10 mM acetyl-Asp-Glu-Val-Asp-p-nitroanilide (Ac-DEVD-pNA) in DMSO (California Peptide Research, Inc., Napa, Calif.), and 10 μl of equal protein cell lysate. Samples were incubated at 37° C., and enzyme-catalyzed release of p-nitroanilide (pNA) was monitored at […] for 1 h in a microtiter plate reader (Molecular Devices Inc., Sunnyvale, Calif.). […] Values for picomoles of pNA released were calculated from those observed in OD405 values using a standard curve of pNA. […]

tumors = conditions: EGF plus cisplatin versus cisplatin alone; cited from earlier work

## COc1cc2ncnc(Nc3cccc(Cl)c3)c2cc1OC [AG1478]
U87MG.ΔEGFR cells [1]; U87MG.ΔEGFR cells, CDDP 5 μg/ml for 2 days, concentrations per FIG. 6B
  apoptosis induction, tyrphostin in combination with CDDP: significant apoptosis in a dose-dependent and synergistic manner
Bcl-XL; U87MG.ΔEGFR cells, 15 μM
  Bcl-XL expression: marked reduction
caspase-3-like proteases; U87MG.ΔEGFR cells
  CDDP-induced caspase activation on co-treatment with tyrphostin: enhanced

## COc1cc2ncnc(Nc3cccc(Br)c3)c2cc1OC [AG1517]
caspase-3-like proteases; U87MG.ΔEGFR cells
  CDDP-induced caspase activation on co-treatment with tyrphostin: enhanced

## [NH2][Pt]([NH2])([Cl])[Cl] [CDDP, cisplatin]
U87MG.ΔEGFR cells [1]; CDDP 5 μg/ml for 2 days, p<0.001
  proportion of TUNEL-positive cells, U87MG.ΔEGFR lower than U87MG, U87MG.DK or U87MG.wtEGFR: more than 5 fold lower
U87MG.ΔEGFR cells [2]
  IC50 value (survival) of U87MG.ΔEGFR cells relative to parental U87MG cells: 4.3 fold
Bcl-XL; U87MG, U87MG.DK and U87MG.wtEGFR cells, continuous exposure for more than 24 hr
  Bcl-XL expression level during CDDP treatment: equally decreased
Bcl-XL; U87MG.ΔEGFR cells
  Bcl-XL expression level during CDDP treatment: remained unchanged
caspase-3-like proteases; U87MG parental cells
  caspase-3-like protease activity relative to basal activity: 5.3 fold
caspase-3-like proteases; U87MG.DK cells
  caspase-3-like protease activity relative to basal activity: 4.7 fold
caspase-3-like proteases; U87MG.wtEGFR cells
  caspase-3-like protease activity relative to basal activity: 6.4 fold
caspase-3-like proteases; U87MG.ΔEGFR cells
  caspase-3-like protease activity relative to basal activity: 2.0 fold
PARP; U87MG, U87MG.DK and U87MG.wtEGFR cells, 24 hr after CDDP
  cleavage of 116-kDa full-length PARP into 85-kDa fragment: observed
PARP; U87MG.ΔEGFR cells, 48 hr after CDDP
  cleavage of 116-kDa full-length PARP into 85-kDa fragment: trace levels

## CO[C@@H]1[C@H](N(C)C(=O)c2ccccc2)C[C@H]2O[C@]1(C)n1c3ccccc3c3c4c(c5c6ccccc6n2c5c31)C(=O)NC4 [CGP 41 251]
[3]
  proliferation rate: reduced
Protein kinase C (PKC)
  PKC activity: reduced

## CCCCC/C=C\C\C=C/C=C/C=C/[C@@H](SC[C@H](NC(=O)CC[C@H](N)C(=O)O)C(=O)NCC(=O)O)[C@@H](O)CCCC(=O)O [LTC4]
glioma
  survival of CDDP-treated animals: increased survival to a statistically significant degree

## COc1ccc(/C=C(\C#N)c2cccnc2)cc1OC [RG 13022]
Glioma cell; 50 μmol/L
  EGF- and PDGF-induced DNA synthesis: completely blocked
Glioma cell
  DNA synthesis induced by growth factors (EGF, PDGF; serum for the tyrphostins): dose-dependently inhibit
  cytotoxicity to the cells: no cytotoxic side effects
  selectivity in blocking either EGF or PDGF signaling: no selectivity
  serum-driven cell growth: inhibit

## N#CC(C#N)=Cc1cc(O)c(O)c(O)c1 [RG 50875]
Glioma cell
  DNA synthesis induced by growth factors (EGF, PDGF; serum for the tyrphostins): dose-dependently inhibit
  cytotoxicity to the cells: no cytotoxic side effects
  selectivity in blocking either EGF or PDGF signaling: no selectivity
  serum-driven cell growth: inhibit

## CN[C@@H]1C[C@H]2O[C@@](C)([C@@H]1OC)n1c3ccccc3c3c4c(c5c6ccccc6n2c5c31)C(=O)N[C@H]4O [UCN-01, seven-hydroxystaurosporine]
[4]
  combination with 1,3-bis(2-chloroethyl)-1-nitrosourea, inhibition of glioma cell proliferation: additive effects
  combination with cisplatin, inhibition of glioma cell proliferation: synergistic effects
U-87 glioma xenografts
  activity against U-87 glioma xenografts: significant activity

## O=C(O)C[C@H](NC(=O)OCc1ccccc1)C(=O)COC(=O)c1c(Cl)cccc1Cl [Z-Asp-CH2-DCB]
U87MG.ΔEGFR cells [1]; cells treated with CDDP in the presence of the inhibitor, data not shown
  effect on CDDP-induced apoptosis: significant inhibition
caspase-3-like proteases; 200 μM prior to and during CDDP treatment, U87MG and sublines
  caspase-3-like protease activity of cells treated with CDDP in the presence of the inhibitor: did not exhibit an increase

## O=c1c(-c2ccc(O)cc2)coc2cc(O)cc(O)c12 [genistein]
[3]
  proliferation rate: inhibited
Protein kinase C (PKC)
  PKC activity: dose dependently reduced
EGFR
  EGFR-associated tyrosine phosphorylation: no change
Glioma cell
  DNA synthesis induced by growth factors (EGF, PDGF; serum for the tyrphostins): inhibited
  cytotoxicity to the cells: cytotoxic
[5]
  IC20: 10 µM
[6]; genistein at 10 μmol/L
  infiltration: completely inhibited

## CO[C@H]1[C@@H](OC)C[C@H](C)[C@@H](OC)C2=CC(=O)C=C(NC(=O)/C(C)=C/C=C\[C@H](OC)[C@@H](OC(N)=O)/C(C)=C/[C@@H]1C)C2=O [herbimycin A]
[7]
  NOS induced by LPS and IFN-gamma: suppressed

## N#CC(C#N)=Cc1cc(O)c(O)c(O)c1 [tyrphostin A25]
EGFR
  EGFR-associated tyrosine phosphorylation: no change
[5]
  IC20: 3 µM
[6]; tyrphostin A25 at 3 μmol/L, third cell line
  invasion: reduced invasion

## Ac-Asp-Glu-Val-Asp-aldehyde (Ac-DEVD-aldehyde) [Ac-DEVD-CHO]
caspase-3-like protease
  effect on increased caspase activities of lysates from CDDP-treated cells: completely abolished

## EGF: epidermal growth factor administered with cisplatin (NSDSECPLSHDGYCLHDGVCMYIEALDKYACNCVVGYIGERCQYRDLKWWELR; Epidermal growth factor; UniProt P01133 971-1023, looked up)
tumors
  cisplatin-induced tumor cell kill (final tumor volume): significantly enhance
